Source: PubChem BioAssay AID1963433 (Molecular Pharmacology Branch, DTP, NCI, 2024)
Values joined by “and” are separate entries in the source; they are usually repeats but may differ in a detail not shown here. Equal entries are not always repeated.

Test system: 772245-204-R-J1-PDC complex spheroid growth
Assay: Anticancer human tumor 772245-204-R-J1-PDC patient-derived rhabdomyosarcoma cell line growth inhibition [Asc]
Details: for viability, T/C: stronger effect = lower value; active = viability on the fitted dose curve at most 10% of control; inactive = the rest
In short: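 Tumor cells were grown as multicellular spheroids with stromal HUVEC and mesenchymal stem cells and treated singly or in combination. Concentrations fell in half-log steps from the clinical Cmax, or from 10 microM where none was known.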

[1] = curve of first compound, second compound 0.1 µM
[2] = curve of first compound, second compound 0.316 µM
[3] = curve of first compound, second compound 1 µM
[4] = curve of first compound, second compound 3.16 µM
[5] = curve of first compound, second compound 10 µM
[6] = second compound 0.1 µM, first compound 0.0316 µM
[7] = second compound 0.1 µM, first compound 0.1 µM
[8] = second compound 0.316 µM, first compound 0.0316 µM
[9] = second compound 0.316 µM, first compound 0.1 µM
[10] = second compound 1 µM, first compound 0.0316 µM
[11] = second compound 1 µM, first compound 0.1 µM
[12] = second compound 3.16 µM, first compound 0.0316 µM
[13] = second compound 3.16 µM, first compound 0.1 µM
[14] = second compound 10 µM, first compound 0.0316 µM
[15] = second compound 10 µM, first compound 0.1 µM
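Note: compound exposure lasted seven days.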
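Throughout, for viability, T/C: 100% = DMSO vehicle control viability.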

O=C(c1cc(Cc2n[nH]c(=O)c3ccccc23)ccc1F)N1CCN(C(=O)C2CC2)CC1 + Cc1c(S(C)(=O)=O)c(-c2cc(F)cc(N3CCN(c4ccc(NS(=O)(=O)c5ccc(NC(CCN6CCC(C(=O)OCCCP(=O)(O)O)CC6)CSc6ccccc6)c(S(=O)(=O)C(F)(F)F)c5)cc4)CC3)c2)c(-c2ccc(Cl)cc2)n1C(C)C
inactive: viability, T/C [6] 76.8% | viability, T/C [7] 81.5% | viability, T/C (second compound 0.1 µM, first compound 0.316 µM) 83.2% | viability, T/C (second compound 0.1 µM, first compound 1 µM) 63.6% | viability, T/C (second compound 0.1 µM, first compound 3.16 µM) 52.7% | viability, T/C (second compound 0.1 µM, first compound 10 µM) 34.3% | viability, T/C [8] 62.8% | viability, T/C [9] 50.5% | viability, T/C (second compound 0.316 µM, first compound 0.316 µM) 44.2% | viability, T/C (second compound 0.316 µM, first compound 1 µM) 54.5% | viability, T/C (second compound 0.316 µM, first compound 3.16 µM) 28.5% | viability, T/C (second compound 0.316 µM, first compound 10 µM) 10.6% | viability, T/C [10] 52.1% | viability, T/C [11] 46.8% | viability, T/C (second compound 1 µM, first compound 0.316 µM) 46.9% | viability, T/C (second compound 1 µM, first compound 1 µM) 30.7% | viability, T/C (second compound 1 µM, first compound 3.16 µM) 12.8% | viability, T/C [12] 26.3% | viability, T/C [13] 36.3% | viability, T/C (second compound 3.16 µM, first compound 0.316 µM) 33.9% | viability, T/C (second compound 3.16 µM, first compound 1 µM) 22% | viability, T/C (second compound 3.16 µM, first compound 3.16 µM) 6.64% | viability, T/C [14] 34.8% | viability, T/C [15] 47.2% | viability, T/C (second compound 10 µM, first compound 0.316 µM) 33.8% | viability, T/C (second compound 10 µM, first compound 1 µM) 17.4% | viability, T/C (second compound 10 µM, first compound 3.16 µM) 13.3%
44.5 nM: IC50 [3]
active: viability, T/C (second compound 1 µM, first compound 10 µM) 6.31% | viability, T/C (second compound 3.16 µM, first compound 10 µM) 2.64% | viability, T/C (second compound 10 µM, first compound 10 µM) 6.24%
3270 nM: IC50 [1]
435 nM: IC50 [2]
< 31.6 nM: IC50 [4] | IC50 [5]

C#Cc1c(F)ccc2cc(O)cc(-c3ncc4c(N5CC6CCC(C5)N6)nc(OCC56CCCN5CC(F)C6)nc4c3F)c12 (centres undefined)
> 10000 nM: IC50 (curve of compound)
inactive: viability, T/C (compound 0.0316 µM) 102% and 92.9% and 100% | viability, T/C (compound 0.1 µM) 101% and 80.2% and 97.7% | viability, T/C (compound 0.316 µM) 93% and 86.2% and 90.3% | viability, T/C (compound 1 µM) 106% and 74.9% and 95.2% | viability, T/C (compound 3.16 µM) 117% and 85.7% and 91.6% | viability, T/C (compound 10 µM) 109% and 66.4% and 75.8%

O=C(c1ccc(F)c(F)c1Nc1ccc(I)cc1F)N1CC(O)([C@@H]2CCCCN2)C1 + CCN1C(C(=O)NC23CCC(C(=O)O)(CC2)CC3)C(c2cccc(Cl)c2F)C2(C(=O)Nc3cc(Cl)ccc32)C12CCCCC2
> 1000 nM: IC50 (curve of first compound, second compound 0.03 µM) | IC50 (curve of first compound, second compound 0.0949 µM) | IC50 (curve of first compound, second compound 0.3 µM) | IC50 (curve of first compound, second compound 0.949 µM) | IC50 (curve of first compound, second compound 3 µM)
inactive: viability, T/C (second compound 0.03 µM, first compound 0.00316 µM) 115% | viability, T/C (second compound 0.03 µM, first compound 0.01 µM) 109% | viability, T/C (second compound 0.03 µM, first compound 0.0316 µM) 108% | viability, T/C (second compound 0.03 µM, first compound 0.1 µM) 112% | viability, T/C (second compound 0.03 µM, first compound 0.316 µM) 100% | viability, T/C (second compound 0.03 µM, first compound 1 µM) 50.8% | viability, T/C (second compound 0.0949 µM, first compound 0.00316 µM) 113% | viability, T/C (second compound 0.0949 µM, first compound 0.01 µM) 91.5% | viability, T/C (second compound 0.0949 µM, first compound 0.0316 µM) 108% | viability, T/C (second compound 0.0949 µM, first compound 0.1 µM) 105% | viability, T/C (second compound 0.0949 µM, first compound 0.316 µM) 115% | viability, T/C (second compound 0.0949 µM, first compound 1 µM) 70.6% | viability, T/C (second compound 0.3 µM, first compound 0.00316 µM) 102% | viability, T/C (second compound 0.3 µM, first compound 0.01 µM) 121% | viability, T/C (second compound 0.3 µM, first compound 0.0316 µM) 98.6% | viability, T/C (second compound 0.3 µM, first compound 0.1 µM) 106% | viability, T/C (second compound 0.3 µM, first compound 0.316 µM) 106% | viability, T/C (second compound 0.3 µM, first compound 1 µM) 73.9% | viability, T/C (second compound 0.949 µM, first compound 0.00316 µM) 110% | viability, T/C (second compound 0.949 µM, first compound 0.01 µM) 109% | viability, T/C (second compound 0.949 µM, first compound 0.0316 µM) 115% | viability, T/C (second compound 0.949 µM, first compound 0.1 µM) 98.5% | viability, T/C (second compound 0.949 µM, first compound 0.316 µM) 105% | viability, T/C (second compound 0.949 µM, first compound 1 µM) 62.3% | viability, T/C (second compound 3 µM, first compound 0.00316 µM) 90.9% | viability, T/C (second compound 3 µM, first compound 0.01 µM) 87.1% | viability, T/C (second compound 3 µM, first compound 0.0316 µM) 85.1% | viability, T/C (second compound 3 µM, first compound 0.1 µM) 100% | viability, T/C (second compound 3 µM, first compound 0.316 µM) 88.5% | viability, T/C (second compound 3 µM, first compound 1 µM) 53.3%

Cn1ncnc1[C@H]1c2n[nH]c(=O)c3cc(F)cc(c23)N[C@@H]1c1ccc(F)cc1 + Cc1c(S(C)(=O)=O)c(-c2cc(F)cc(N3CCN(c4ccc(NS(=O)(=O)c5ccc(NC(CCN6CCC(C(=O)OCCCP(=O)(O)O)CC6)CSc6ccccc6)c(S(=O)(=O)C(F)(F)F)c5)cc4)CC3)c2)c(-c2ccc(Cl)cc2)n1C(C)C
3.84 nM: IC50 [2]
active: viability, T/C [13] 10.6%
< 0.316 nM: IC50 [4] | IC50 [5]
1.23 nM: IC50 [3]
inactive: viability, T/C (second compound 0.1 µM, first compound 0.000316 µM) 73.2% | viability, T/C (second compound 0.1 µM, first compound 0.001 µM) 77.1% | viability, T/C (second compound 0.1 µM, first compound 0.00316 µM) 70.5% | viability, T/C (second compound 0.1 µM, first compound 0.01 µM) 63.3% | viability, T/C [6] 58.9% | viability, T/C [7] 55% | viability, T/C (second compound 0.316 µM, first compound 0.000316 µM) 61.4% | viability, T/C (second compound 0.316 µM, first compound 0.001 µM) 58.8% | viability, T/C (second compound 0.316 µM, first compound 0.00316 µM) 53.3% | viability, T/C (second compound 0.316 µM, first compound 0.01 µM) 37% | viability, T/C [8] 29.2% | viability, T/C [9] 23.6% | viability, T/C (second compound 1 µM, first compound 0.000316 µM) 47.1% | viability, T/C (second compound 1 µM, first compound 0.001 µM) 58.7% | viability, T/C (second compound 1 µM, first compound 0.00316 µM) 37% | viability, T/C (second compound 1 µM, first compound 0.01 µM) 15.5% | viability, T/C [10] 25.8% | viability, T/C [11] 15.2% | viability, T/C (second compound 3.16 µM, first compound 0.000316 µM) 34.2% | viability, T/C (second compound 3.16 µM, first compound 0.001 µM) 44.3% | viability, T/C (second compound 3.16 µM, first compound 0.00316 µM) 33.3% | viability, T/C (second compound 3.16 µM, first compound 0.01 µM) 19.7% | viability, T/C [12] 12.5% | viability, T/C (second compound 10 µM, first compound 0.000316 µM) 40.9% | viability, T/C (second compound 10 µM, first compound 0.001 µM) 34.6% | viability, T/C (second compound 10 µM, first compound 0.00316 µM) 27.7% | viability, T/C (second compound 10 µM, first compound 0.01 µM) 13.2% | viability, T/C [14] 11.1% | viability, T/C [15] 12%
> 100 nM: IC50 [1]

NC1CCC(NC2CC2c2ccccc2)CC1 (centres undefined)
> 100 nM: IC50 (curve of compound)
inactive: viability, T/C (compound 0.000316 µM) 83.9% and 103% and 99% | viability, T/C (compound 0.001 µM) 81.5% and 83.9% and 100% | viability, T/C (compound 0.00316 µM) 99% and 87.2% and 107% | viability, T/C (compound 0.01 µM) 83.2% and 87% and 97.1% | viability, T/C (compound 0.0316 µM) 84.2% and 98.8% and 103% | viability, T/C (compound 0.1 µM) 77.9% and 70.9% and 91.6%
